This test deals with T1, K-RasG12C (1-169) (Homo sapiens, UniProt P01116, G12C).
T1 construct: Un-tagged recombinant K-Ras G12C (1-169) at 4 μM in Buffer A; hexahistidine (cleaved yes); made in house; host or cells: Escherichia coli BL21 (DE)
The test can be described thus: Mass spectrometric screen for extent of covalent labeling. In kind it is binding. Conditions: for percent covalent labeling at 10 µM: 10 micromolar; for Labeling % (10 micM) 24h: 10 micM compound, (plate) or (single) measurement. How it is done:
Un-tagged recombinant K-Ras G12C (1-169) at 4 μM in Buffer A was reacted with inhibitors at 200 μM or 10 μM (2% DMSO final). At 2, 6, and 24 hrs, 10 μL aliquots were removed and the reactions were stopped by addition of 1 μL 2% formic acid. The extent of modification was determined by mass spectrometry.

Where [1] appears, read: 2 h, 2 hrs, read-out: Percent reduction in activity of compound at 10 micromolar relative to control (no compound), 2 hrs.
The mark [2] stands for this setting: 6 h, 6 hrs, read-out: Percent reduction in activity of compound at 10 micromolar relative to control (no compound), 6 hrs.
Setting [3] is: 24 h, 24 hrs, read-out: Percent reduction in activity of compound at 10 micromolar relative to control (no compound), 24 hrs.

Where two headings read alike, the source gives them in different places.

The results in this text go back to patent publication US11008334B2, “Compositions and methods for treating cancer” (The Regents of the University of California, priority 2012, dated 2021).

Turning to `O=C(NC1CCN(C(=O)CNc2cc(Cl)c(Cl)cc2I)CC1)C1CO1` (stereo not drawn) [JO-02-152], the percent covalent labeling at 10 µM is at most 5% under setting [1], at most 5% under setting [2] and 20 to 40% under setting [3].
Regarding `C=CS(=O)(=O)NC1CCN(C(=O)COc2c(Cl)cc(Cl)c3c2OC(C)(C)O3)CC1` [UP-I-177C], the “Labeling % (10 micM) 24h” value is on record as “++++ (plate) (40% < ++++ <=60%)”. Besides, the percent covalent labeling at 10 µM under setting [1] was at most 5%. Further, the percent covalent labeling at 10 µM under setting [2] lay within 5 to 20%. Moreover, the percent covalent labeling at 10 µM under setting [3] lay in the range of 40 to 60%. In addition, the “Labeling % (10 micM) 24h” value (Table 5) is given as “++++ (plate) (40% < ++++ <=60%)”.
`C=CS(=O)(=O)NC1CCN(C(=O)COc2cc(Br)c(Cl)cc2Cl)CC1` [Ras-040]: the percent covalent labeling at 10 µM by setting is: under setting [1], at most 5%; under setting [2], at most 5%; under setting [3], 20 to 40%.
`C=CS(=O)(=O)NC1CCN(C(=O)COc2cc(NC)c(Cl)cc2Cl)CC1` [Ras-024]: the percent covalent labeling at 10 µM is at most 5% under setting [1], at most 5% under setting [2] and at most 5% under setting [3].
In the case of `C=CC(=O)N1CCN(C(=O)COc2ccc(Cl)cc2Cl)CC1` [JO-02-172], the “Labeling % (10 micM) 24h” value is on record as “+ (plate) (+ <=5%)”. In addition, the “Labeling % (10 micM) 24h” value (Table 5) is reported as “+ (plate) (+ <=5%)”.
For `C=CS(=O)(=O)NC1CCN(C(=O)COc2cc(C(=O)O)c(Cl)cc2Cl)CC1` [Ras-038], the percent covalent labeling at 10 µM under setting [1] was at most 5%, the percent covalent labeling at 10 µM under setting [2] is at most 5% and the percent covalent labeling at 10 µM under setting [3] is at most 5%.
Take `C=CS(=O)(=O)N1CCN(C(=O)COc2ccc(Cl)cc2Cl)CC1` [JO-02-112D]: the “Labeling % (10 micM) 24h” value is given as “+++ (plate) (20%< +++ <=40%)”. For the same compound, the percent covalent labeling at 10 µM under setting [1] is at most 5%. Under setting [2], the percent covalent labeling at 10 µM was at most 5%. Also, under setting [3], the percent covalent labeling at 10 µM fell in the range of 20 to 40%. Also, the “Labeling % (10 micM) 24h” value (Table 5) is on record as “+++ (plate) (20%< +++ <=40%)”.
Turning to `C=CS(=O)(=O)NC1CCN(C(=O)COc2ncnc3sc(C)cc23)CC1` [UP-I-154K], the percent covalent labeling at 10 µM is at most 5% under setting [1], at most 5% under setting [2] and at most 5% under setting [3].
As for `C=CS(=O)(=O)NC1CCN(C(=O)CSc2nc3cc(C)ccc3[nH]2)CC1` [UP-I-160B], the percent covalent labeling at 10 µM under setting [1] was at most 5%, the percent covalent labeling at 10 µM under setting [2] is at most 5% and the percent covalent labeling at 10 µM under setting [3] is at most 5%.
For `C=CS(=O)(=O)NC1CCN(C(=O)CNc2cc(Cl)c(Cl)cc2OC)CC1` [Ras-054], the percent covalent labeling at 10 µM runs as follows: under setting [1], at most 5%; under setting [2], 20 to 40%; under setting [3], over 60%.
For `C=CS(=O)(=O)NC1CCN(C(=O)COc2cc(NS(C)(=O)=O)c(Cl)cc2Cl)CC1` [Ras-061] the same measures were at most 5%, at most 5% and at most 5%.
Take `C=CS(=O)(=O)NC1CCN(C(=O)CNc2cc(CC)c(Cl)cc2OC)CC1` [Ras-085]: the percent covalent labeling at 10 µM is, setting by setting: under setting [1], 5 to 20%; under setting [2], 20 to 40%; under setting [3], over 60%.
On to `C=CS(=O)(=O)NC1CCN(C(=O)COc2ccc(Cl)cc2NC(C)=O)CC1` [Ras-016], for which the percent covalent labeling at 10 µM under setting [1] was at most 5%, the percent covalent labeling at 10 µM under setting [2] is at most 5% and the percent covalent labeling at 10 µM under setting [3] was at most 5%.
With `C=CS(=O)(=O)NC1CCN(CC(=O)Nc2cc(Cl)c(Cl)cc2I)CC1` [Ras-068], the percent covalent labeling at 10 µM under setting [1] is at most 5%, the percent covalent labeling at 10 µM under setting [2] is at most 5% and the percent covalent labeling at 10 µM under setting [3] was at most 5%.
As for `C=CS(=O)(=O)NC1CCN(C(=O)COc2cc(I)c(Cl)cc2Cl)CC1` [Ras-036], the percent covalent labeling at 10 µM runs as follows: under setting [1], at most 5%; under setting [2], 5 to 20%; under setting [3], 40 to 60%.
Consider `C=CS(=O)(=O)NC1CCN(C(=O)COc2cc(O)c(Cl)cc2Cl)CC1` [Ras-039], for which the percent covalent labeling at 10 µM runs as follows: under setting [1], at most 5%; under setting [2], at most 5%; under setting [3], 5 to 20%.
On to `C=CS(=O)(=O)NCC(=O)Nc1cc(-c2cccs2)n[nH]1` [JO-02-125], for which the percent covalent labeling at 10 µM is at most 5% under setting [1], at most 5% under setting [2] and 20 to 40% under setting [3].
As for `C=CS(=O)(=O)NC1CCN(C(=O)COc2cc(Cl)c(Cl)cc2Cl)CC1` [JO-02-115D], the percent covalent labeling at 10 µM under setting [1] is at most 5%, the percent covalent labeling at 10 µM under setting [2] is at most 5% and the percent covalent labeling at 10 µM under setting [3] lay in the range of 20 to 40%.
Consider `C=CS(=O)(=O)NC1CCN(C(=O)CNc2c(Cl)cc(Cl)c3nsnc23)CC1` [UP-I-185a], for which the “Labeling % (10 micM) 24h” value is reported as “+++++ (single) (60% < +++++)”. The percent covalent labeling at 10 µM under setting [1] fell in the range of 5 to 20%. Further, under setting [2], the percent covalent labeling at 10 µM fell in the range of 20 to 40%. Further, under setting [3], the percent covalent labeling at 10 µM is over 60%. The “Labeling % (10 micM) 24h” value (Table 5) is recorded as “+++++ (single) (60% < +++++)”.
With `C=CS(=O)(=O)NC1CCN(C(=O)COc2ccc(Cl)cc2N2CCCC2)CC1` [Ras-029], the percent covalent labeling at 10 µM is at most 5% under setting [1], at most 5% under setting [2] and at most 5% under setting [3].
On to `C=CS(=O)(=O)NC1CCN(c2cc(-c3cc(Cl)c(Cl)cc3I)ccn2)CC1` [Ras-060], for which the percent covalent labeling at 10 µM was at most 5% under setting [1], at most 5% under setting [2] and at most 5% under setting [3].
For the compound `C#CCOc1cc(OCC(=O)N2CCC(NS(=O)(=O)C=C)CC2)c(Cl)cc1Cl` [Ras-069], the percent covalent labeling at 10 µM reads like this: under setting [1], at most 5%; under setting [2], 5 to 20%; under setting [3], over 60%. The “Labeling % (10 micM) 24h” value (Table 5) is “+++ (single) (20%< +++ <=40%)”.
Turning to `C=CS(=O)(=O)C1CCC2(CC1)CCN(C(=O)COc1ccc(Cl)cc1Cl)C2` (stereo not drawn) [JO-02-112B], the percent covalent labeling at 10 µM reads like this: under setting [1], at most 5%; under setting [2], at most 5%; under setting [3], 5 to 20%.
On to `C=CS(=O)(=O)NC1CCN(C(=O)CNc2ccc(Cl)cc2Cl)CC1` [Ras-028], for which the “Labeling % (10 micM) 24h” value was “+++ (plate) (20%< +++ <=40%)”. Also, the percent covalent labeling at 10 µM under setting [1] is at most 5%. The percent covalent labeling at 10 µM under setting [2] is at most 5%. Further, under setting [3], the percent covalent labeling at 10 µM lay within 20 to 40%. Also, the “Labeling % (10 micM) 24h” value (Table 5) is listed as “+++ (plate) (20%< +++ <=40%)”.
As for `C=CS(=O)(=O)NC1CCN(C(=O)COc2cc(-c3cn[nH]c3)c(Cl)cc2Cl)CC1` [Ras-056], the percent covalent labeling at 10 µM is at most 5% under setting [1], at most 5% under setting [2] and at most 5% under setting [3].
For `C=CS(=O)(=O)NC1CCN(C(=O)COc2cc(-c3nn[nH]n3)c(Cl)cc2Cl)CC1` [Ras-045], the percent covalent labeling at 10 µM reads like this: under setting [1], at most 5%; under setting [2], at most 5%; under setting [3], at most 5%.
For the compound `C=CS(=O)(=O)NC1CCN(C(=O)COc2cc(C(=O)OC)c(Cl)cc2Cl)CC1` [Ras-037], the percent covalent labeling at 10 µM is, setting by setting: under setting [1], at most 5%; under setting [2], at most 5%; under setting [3], 5 to 20%.
Turning to `C=CS(=O)(=O)N1CC2CN(C(=O)COc3ccc(Cl)cc3Cl)CC2C1` (stereo not drawn) [JO-02-74A], the percent covalent labeling at 10 µM was at most 5% under setting [1], at most 5% under setting [2] and 20 to 40% under setting [3].
As for `C=CS(=O)(=O)NC1CCN(C(=O)COc2ccc(Cl)cc2Cl)CC1` [JO-02-31A], the “Labeling % (10 micM) 24h” value is reported as “++ (plate) (5% < ++ <=20%)”. For the same compound, the percent covalent labeling at 10 µM under setting [1] was at most 5%. Besides, the percent covalent labeling at 10 µM under setting [2] was at most 5%. In addition, the “Labeling % (10 micM) 24h” value (Table 5) is “++ (plate) (5% < ++ <=20%)”.
Consider `C=CS(=O)(=O)NC1CCN(C(=O)COc2c(Cl)cc(Cl)cc2Cl)CC1` [Ras-008], for which the percent covalent labeling at 10 µM under setting [1] is at most 5%, the percent covalent labeling at 10 µM under setting [2] is at most 5% and the percent covalent labeling at 10 µM under setting [3] is at most 5%.
Regarding `C=CS(=O)(=O)NC1CCN(C(=O)COc2c(Cl)cc(Cl)cc2-c2ccno2)CC1` [UP-I-165B], the percent covalent labeling at 10 µM is, setting by setting: under setting [1], at most 5%; under setting [2], at most 5%; under setting [3], at most 5%.
On to `C=CS(=O)(=O)NC1CCN(C(=O)COc2ccc(Cl)cc2C#N)CC1` [Ras-021], for which the percent covalent labeling at 10 µM runs as follows: under setting [1], at most 5%; under setting [2], at most 5%; under setting [3], at most 5%.
On to `C=CS(=O)(=O)NC1CCN(C(=O)C(C)Oc2cc(CN)c(Cl)cc2Cl)CC1` (stereo not drawn) [Ras-058], for which the percent covalent labeling at 10 µM is at most 5% under setting [1], at most 5% under setting [2] and at most 5% under setting [3].
As to `C=CS(=O)(=O)NC1CCN(C(=O)[C@@H](C)Oc2ccc(Cl)cc2Cl)CC1` [JO-02-115C], the percent covalent labeling at 10 µM is, setting by setting: under setting [1], at most 5%; under setting [2], at most 5%; under setting [3], at most 5%.
Consider `C=CS(=O)(=O)NC1CCN(C(=O)COc2cc(C#N)c(Cl)cc2Cl)CC1` [Ras-013], for which the percent covalent labeling at 10 µM is, setting by setting: under setting [1], at most 5%; under setting [2], at most 5%; under setting [3], 5 to 20%.
Consider `C=CS(=O)(=O)NC1CCN(C(=O)COc2c(Br)cc(Br)c3c2OC(C)(C)O3)CC1` [UP-I-177D], for which the percent covalent labeling at 10 µM is at most 5% under setting [1], at most 5% under setting [2] and over 60% under setting [3].
